Literature values, collected in patent publication US10144913B1, “Method to increase the yield of products in plant material” (Arkansas State University-Jonesboro, priority 2012, dated 2018).

Columns and labels:
[1] = in vitro, compared to resveratrol
[2] = molecular target: type II cannabinoid receptor (Homo sapiens, UniProt P34972); conditions: effect of the isoprenyl moiety; Brents et al., 2012
[3] = in vitro, compared to resveratrol; US 20120165281
HL-60 cells = conditions: caspase-dependent and caspase-independent pathways, Huang et al., 2010
rotavirus = rotavirus infected HT29.f8 cells; Ball et al., 2015
cannabinoid receptors = conditions: US 20120165281

Sequence of type II cannabinoid receptor (P34972 whole entry): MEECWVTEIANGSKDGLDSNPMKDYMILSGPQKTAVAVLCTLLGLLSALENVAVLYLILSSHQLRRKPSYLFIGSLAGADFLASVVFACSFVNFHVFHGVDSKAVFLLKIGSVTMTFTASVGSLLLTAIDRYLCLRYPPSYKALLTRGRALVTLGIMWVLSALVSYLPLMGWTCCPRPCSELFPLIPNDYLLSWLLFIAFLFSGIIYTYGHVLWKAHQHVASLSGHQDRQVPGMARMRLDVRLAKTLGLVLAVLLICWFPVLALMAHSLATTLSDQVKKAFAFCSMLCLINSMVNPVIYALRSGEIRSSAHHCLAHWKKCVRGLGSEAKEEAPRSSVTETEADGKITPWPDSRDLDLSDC

Structure (SMILES)	antioxidant activities [1]	binding affinity to type II cannabinoid receptor [2]	metabolic profiles [3]	anticancer activity (HL-60 cells)	antiviral activity (inhibiting rotavirus replication) (rotavirus)	affinity to cannabinoid receptors (cannabinoid receptors)
CC(C)/C=C/c1c(O)cc(/C=C/c2ccc(O)c(O)c2)cc1O [arachidin-1]	higher antioxidant activities than resveratrol	improved binding affinity	favorable metabolic profiles	anticancer activity	exhibited antiviral activity	have affinity
Oc1ccc(C=Cc2cc(O)cc(O)c2)cc1 [resveratrol, reference compound]					not observed	
CC(C)/C=C/c1c(O)cc(/C=C/c2ccc(O)cc2)cc1O [arachidin-3]		improved binding affinity	favorable metabolic profiles		exhibited antiviral activity	have affinity
